# US20220168431A1, “METHODS OF TREATING CANCER USING TRIMETAZIDINE-BASED COMPOUNDS” (IMBRIA PHARMACEUTICALS, INC., priority 2019, published 2022)
# Where “and” joins values, the source holds several entries; their conditions need not be identical. Equal entries are not always repeated.
# What was measured:
# [1] = system: isolated hearts after ischemia-reperfusion; test: Ischemia-reperfusion (IR) method, coronary flow; type: in vivo, mice
# Description: FIG. 38 is a schematic of the ischemia-reperfusion (IR) method used to analyze the effects of compositions of the invention on coronary flow, cardiac function, and infarct size. […] At 20 minutes, ischemia was induced, and coronary flow was analyzed. At 50 minutes, reperfusion was initiated to restore blood flow. At 170 minutes, coronary flow and cardiac function was analyzed, and then the hearts were preserved, sectioned, and infarct size was measured by triphenyltetrazolium chloride (TTC) staining. FIG. 39 is a graph of coronary flow of after IR.
# [2] = system: isolated hearts after ischemia-reperfusion; test: Ischemia-reperfusion (IR) method, cardiac function (LVDP); type: in vivo, mice
# Description: FIG. 38 is a schematic of the ischemia-reperfusion (IR) method used to analyze the effects of compositions of the invention on coronary flow, cardiac function, and infarct size. […] At 20 minutes, ischemia was induced, and coronary flow was analyzed. At 50 minutes, reperfusion was initiated to restore blood flow. At 170 minutes, coronary flow and cardiac function was analyzed, and then the hearts were preserved, sectioned, and infarct size was measured by triphenyltetrazolium chloride (TTC) staining. FIG. 40 is graph of left ventricular developed pressure (LVDP) after IR. Blue bars indicate LVDP at 20 minutes, and orange bars indicate LVDP at 170 minutes.
# [3] = system: isolated hearts after ischemia-reperfusion; test: Ischemia-reperfusion (IR) method, infarct size by TTC staining; type: in vivo, mice; details: result in words
# Description: FIG. 38 is a schematic of the ischemia-reperfusion (IR) method used to analyze the effects of compositions of the invention on coronary flow, cardiac function, and infarct size. […] At 20 minutes, ischemia was induced, and coronary flow was analyzed. At 50 minutes, reperfusion was initiated to restore blood flow. At 170 minutes, coronary flow and cardiac function was analyzed, and then the hearts were preserved, sectioned, and infarct size was measured by triphenyltetrazolium chloride (TTC) staining. […] FIG. 42 is graph of infarct size after TR.
# [4] = Stability of CV-8972 in aqueous solution at different concentrations and pH; type: physicochemical
# Description: The stability of CV-8972 was analyzed. Aqueous samples containing CV-8972 at different concentrations and pH were incubated for various periods and analyzed.
# Form A of CV-8972 were analyzed for stability in aqueous solution. Aqueous samples containing CV-8972 at different concentrations and pH were incubated for various periods and analyzed.
# [5] = Stability of CV-8972 forms in various solvents, X-ray powder diffraction; type: physicochemical; details: batch 289-MBA-15-A (form B)
# Description: The stability of CV-8972 was analyzed.
# Samples from batch 289-MBA-15-A (containing form B) were added to various solvents, incubated under various conditions, and analyzed by X-ray powder diffraction.
# Samples from batch 289-MBA-16 (containing forms A and B) were added to various solvents, incubated under various conditions, and analyzed by X-ray powder diffraction.
# Samples from batch S-18-0030513 (containing form A) were added to various solvents, incubated under various conditions, and analyzed by X-ray powder diffraction.
compound,measurement,setting,value
"COc1ccc(CN2CCNCC2)c(OC)c1OC [TMZ, trimetazidine]",CF170/CF20,"[1]; group MEAN, ratio 170 minutes to 20 minutes",4.02E+01 ul/m1
same,CF170/CF20,"[1]; ratio of flow at 170 minutes to flow at 20 minutes, individual hearts, TMZ 20 μM, TNF 2 μM each, TNS 20 μM each",2.42E+01 ul/m1 and 5.87E+01 ul/m1 and 3.57E+01 ul/m1 and 3.37E+01 ul/m1 and 5.21E+01 ul/m1 and 2.73E+01 ul/m1 and 2.60E+01 ul/m1 and 6.39E+01 ul/m1
same,LVDP × HR,"[2]; after 2h reperfusion, group MEAN",6.82E+03
same,LVDP × HR,"[2]; after 2h reperfusion, individual hearts",2.52E+03 and 5.15E+03 and 5.28E+03 and 4.49E+03 and 3.24E+03 and 4.31E+03 and 9.11E+03 and 1.30E+04 and 6.44E+03 and 1.77E+04
same,LVDP × HR,"[2]; pre-ischemia, group MEAN",1.68E+04
same,LVDP × HR,"[2]; pre-ischemia, individual hearts",1.83E+04 and 2.31E+04 and 1.08E+04 and 1.77E+04 and 2.33E+04 and 1.26E+04 and 9.82E+03 and 1.01E+04 and 1.57E+04 and 2.36E+04
same,cardiac function after IR,[2]; result in words,prevented a decline in cardiac function
same,infarct size after IR,[3],decreased infarct size
COc1ccc(CN2CCN(CCOC(=O)c3cccnc3)CC2)c(OC)c1OC.Cl.Cl.Cl [289-MBA-15-A],Retention Time 5.6 (CV-8972 peak),"[4]; 2 mg/mL pH 6 (Form B), 1 hrs, measured pH 6.9",95.1
same,Retention Time 5.6 (CV-8972 peak),"[4]; 2 mg/mL pH 6 (Form B), 4 hrs, measured pH 6.8",92.45
same,Retention Time 5.6 (CV-8972 peak),"[4]; 2 mg/mL pH 6 (Form B), 6 hrs, measured pH 6.8",90.65
same,Retention Time 5.6 (CV-8972 peak),"[4]; 2 mg/mL pH 6 (Form B), 22 hrs, measured pH 6.7",89.15
same,Retention Time 5.6 (CV-8972 peak),"[4]; 2 mg/mL pH 7 (Form B), 1 hrs, measured pH 6.6",95.46
same,Retention Time 5.6 (CV-8972 peak),"[4]; 2 mg/mL pH 7 (Form B), 4 hrs, measured pH 6.5",93.92
same,Retention Time 5.6 (CV-8972 peak),"[4]; 10 mg/mL pH 6 (Form B), 1 hrs, measured pH 6.1",94.81
same,Retention Time 5.6 (CV-8972 peak),"[4]; 10 mg/mL pH 6 (Form B), 4 hrs, measured pH 6",94.69
same,Retention Time 5.6 (CV-8972 peak),"[4]; 10 mg/mL pH 6 (Form B), 6 hrs, measured pH 5.9",94.39
same,Retention Time 5.6 (CV-8972 peak),"[4]; 10 mg/mL pH 6 (Form B), 22 hrs, measured pH 5.9",93.93
same,Retention Time 5.6 (CV-8972 peak),"[4]; 10 mg/mL pH 7 (Form B), 1 hrs, measured pH 7.4",86.18
same,Retention Time 5.6 (CV-8972 peak),"[4]; 10 mg/mL pH 7 (Form B), 4 hrs, measured pH 7.4",82.36
same,Retention Time 5.6 (CV-8972 peak),"[4]; 10 mg/mL pH 7 (Form B), 6 hrs, measured pH 7.3",79.37
"COc1ccc(CN2CCN(CCOC(=O)c3cccnc3)CC2)c(OC)c1OC [CV-8972, 2-(4-(2,3,4-trimethoxybenzyl)piperazin-1-yl)ethyl nicotinate]",XRPD results,"[5]; EtOH, CC from 60° C.",Form C + minor
same,XRPD results,"[5]; no solvent, 100° C., 20 minutes","Form B, shifted"
COc1ccc(CN2CCN(CCOC(=O)c3cccnc3)CC2)c(OC)c1OC.Cl.Cl.Cl [276-MBA-172],Retention Time 5.6 (CV-8972 peak),"[4]; 2 mg/mL pH 6 (Form A), 1 hrs, measured pH 6.1",97.22
same,Retention Time 5.6 (CV-8972 peak),"[4]; 2 mg/mL pH 6 (Form A), 4 hrs, measured pH 6.1",97.01
same,Retention Time 5.6 (CV-8972 peak),"[4]; 2 mg/mL pH 6 (Form A), 6 hrs, measured pH 6.1",96.51
same,Retention Time 5.6 (CV-8972 peak),"[4]; 2 mg/mL pH 7 (Form A), 1 hrs, measured pH 6.8",95.06
same,Retention Time 5.6 (CV-8972 peak),"[4]; 2 mg/mL pH 7 (Form A), 4 hrs, measured pH 6.7",93.7
same,Retention Time 5.6 (CV-8972 peak),"[4]; 2 mg/mL pH 7 (Form A), 6 hrs, measured pH 6.7",92.12
same,Retention Time 5.6 (CV-8972 peak),"[4]; 2 mg/mL pH 7 (Form A), 22 hrs, measured pH 6.8",91.07
same,Retention Time 5.6 (CV-8972 peak),"[4]; 10 mg/mL pH 6 (Form A), 1 hrs, measured pH 6.8",93.43
same,Retention Time 5.6 (CV-8972 peak),"[4]; 10 mg/mL pH 6 (Form A), 4 hrs, measured pH 6.8",91.82
same,Retention Time 5.6 (CV-8972 peak),"[4]; 10 mg/mL pH 6 (Form A), 6 hrs, measured pH 6.7",91.8
same,Retention Time 5.6 (CV-8972 peak),"[4]; 10 mg/mL pH 6 (Form A), 22 hrs, measured pH 6.7",89.66
same,Retention Time 5.6 (CV-8972 peak),"[4]; 10 mg/mL pH 7 (Form A), 1 hrs, measured pH 7.2",89.05
same,Retention Time 5.6 (CV-8972 peak),"[4]; 10 mg/mL pH 7 (Form A), 4 hrs, measured pH 7.1",86.8
same,Retention Time 5.6 (CV-8972 peak),"[4]; 10 mg/mL pH 7 (Form A), 6 hrs, measured pH 7.1",84.79
